Results on 19 compounds are retold here after patent publication US8513220B2, “Aromatic compounds having sphingosine-1-phosphonate (S1P) receptor activity” (Allergan, Inc., priority 2010, dated 2013).

One test has as its target T1, human S1P1 receptor (Homo sapiens, UniProt P21453).
T1 construct: expressed in transfected cells; membranes used
As to the kind of experiment: GTP γ35S binding assay for S1P1 activity. Format: biochemical. Conditions: for activation at 5 µM: S1P1 receptor GTPγ^35S, read-out: % STIMULATION @ 5 μM; for EC50: S1P1 receptor, membranes, compounds 0.08 to 5,000 nM, read-out: GTPγ^35S EC50. On the procedure: Novel compounds were synthesized and tested for S1P1 activity using the GTP γ^35S binding assay. These compounds may be assessed for their ability to activate or block activation of the human S1P1 receptor in cells stably expressing the S1P1 receptor. GTP γ^35S binding was measured in the medium containing (mM) HEPES 25, pH 7.4, MgCl2 10, NaCl 100, dithitothreitol 0.5, digitonin 0.003%, 0.2 nM GTP γ^35S, and 5 μg membrane protein in a volume of 150 μl. Test compounds were included in the concentration range from 0.08 to 5,000 nM unless indicated otherwise. Membranes were incubated with 100 μM 5′-adenylylimmidodiphosphate for 30 min, and subsequently with 10 μM GDP for 10 min on ice. Drug solutions and membrane were mixed, and then reactions were initiated by adding GTP γ^35S and continued for 30 min at 25° C. Reaction mixtures were filtered over Whatman GF/B filters under vacuum, and washed three times with 3 mL of ice-cold buffer (HEPES 25, pH7.4, MgCl2 10 and NaCl 100). Filters were dried and mixed with scintillant, and counted for ^35S activity using a […]. Agonist-induced GTP γ^35S binding was obtained by subtracting that in the absence of agonist. Binding data were analyzed using a non-linear regression method. In case of antagonist assay, the reaction mixture contained 10 nM S1P in the presence of test antagonist at concentrations ranging from 0.08 to 5000 nM.
Activity potency: S1P1 receptor from GTP γ^35S: nM, (EC50)

A further test deals with lymphocytes in blood. Put plainly: Lymphopenia assay in mice (in vivo blood lymphocyte depletion). Conditions: female C57BL6 mice, 10 mg/Kg subcutaneous. As to the method: Test drugs are prepared in a solution containing 3% (w/v) 2-hydroxy propyl β-cyclodextrin (HPBCD) and 1% DMSO to a final concentration of 1 mg/ml, and subcutaneously injected to female C57BL6 mice (CHARLES RIVERS) weighing 20-25 g at the dose of 10 mg/Kg. Blood samples are obtained by puncturing the submandibular skin with a Goldenrod animal lancet at 5, 24, 48, 72, and 96 hrs post drug application. Blood is collected into microvettes (SARSTEDT) containing EDTA tripotassium salt. Lymphocytes in blood samples are counted using a HEMAVET Multispecies Hematology System, HEMAVET HV950FS (Drew Scientific Inc.). (Hale, J. et al Bioorg. & Med. Chem. Lett. 14 (2004) 3351).
A lymphopenia assay in mice; as previously described, was employed to measure the in vivo blood lymphocyte depletion after dosing with: • (3-{[5-(4-Hexyl-phenyl)-6-thiophen-2-yl-pyridin-2-ylmethyl]-amino}-propyl)-phosphonic acid, Compound 2 (FIG. 1); • (3-{[6-(5-Fluoro-thiophen-2-yl)-5-(4-hexyl-phenyl)-pyridin-2-ylmethyl]-amino}-propyl)-phosphonic acid, Compound 3 (FIG. 2); • (3-{[5-(4-Hexyl-3-propyl-phenyl)-6-thiophen-2-yl-pyridin-2-ylmethyl]-amino}-propyl)-phosphonic acid, Compound 4 (FIG. 3); • [3-({5-[4-(3-Phenyl-propyl)-phenyl]-6-thiophen-2-yl-pyridin-2-ylmethyl}-amino)-propyl]-phosphonic acid, Compound 5 (FIG. 4); • (3-{[5-(4-Hexyl-phenyl)-6-thiophen-3-yl-pyridin-2-ylmethyl]-amino}-propyl)-phosphonic acid, Compound 6 (FIG. 5); • (3-{[5-(4-Hexyl-phenyl)-6-oxazol-4-yl-pyridin-2-ylmethyl]-amino}-propyl)-phosphonic acid, Compound 7 (FIG. 6); • (3-{[6-Furan-2-yl-5-(4-hexyl-phenyl)-pyridin-2-ylmethyl]-amino}-propyl)-phosphonic acid, Compound 9 (FIG. 7); • [3-({6-Phenyl-5-[4-(3-phenyl-propyl)-phenyl]-pyridin-2-ylmethyl}-amino)-propyl]-phosphonic acid, Compound 14 (FIGS. 8) and • (3-{[5-(4-Hexyl-3-propyl-phenyl)-6-phenyl-pyridin-2-ylmethyl]-amino}-propyl)-phosphonic acid, Compound 16 (FIG. 9).
These S1P agonist (or modulator) is useful for S1P-related diseases, and exemplified by the lymphopenia in vivo response. In general, test drugs Compound 3 and 16 were prepared in a solution containing 3% (w/v) 2-hydroxy propyl β-cyclodextrin (HPBCD) and 1% DMSO to a final concentration of 1 mg/ml, and subcutaneously injected to female C57BL6 mice (CHARLES RIVERS) weighing 20-25 g at the dose of 10 mg/Kg. Blood samples were obtained by puncturing the submandibular skin with a Goldenrod animal lancet at 5, 24, 48, and 72 hrs post drug application. Blood was collected into microvettes (SARSTEDT) containing EDTA tripotassium salt. Lymphocytes in blood samples were counted using a HEMAVET Multispecies Hematology System, HEMAVET HV950FS (Drew Scientific Inc.). Results are shown in the following figures below that depict lowered lymphocyte count after 5 hours (<1 number of lymphocytes 10^3/μL blood).

T1 sequence (P21453 whole entry): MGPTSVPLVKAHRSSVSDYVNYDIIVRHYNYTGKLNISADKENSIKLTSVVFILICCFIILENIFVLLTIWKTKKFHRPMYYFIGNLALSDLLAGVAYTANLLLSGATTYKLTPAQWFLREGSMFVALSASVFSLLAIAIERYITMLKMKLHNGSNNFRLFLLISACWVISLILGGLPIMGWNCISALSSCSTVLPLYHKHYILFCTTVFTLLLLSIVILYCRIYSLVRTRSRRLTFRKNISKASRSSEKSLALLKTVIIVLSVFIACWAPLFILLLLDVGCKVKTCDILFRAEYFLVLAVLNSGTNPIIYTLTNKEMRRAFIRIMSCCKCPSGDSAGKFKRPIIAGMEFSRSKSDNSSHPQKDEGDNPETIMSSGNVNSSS

For the compound `CCCCCCc1ccc(-c2ccc(CNCCCP(=O)(O)O)cc2-c2ccccc2)nc1` [Compound 1, (3-{[6-(5-Hexyl-pyridin-2-yl)-biphenyl-3-ylmethyl]-amino}-propyl)-phosphonic acid], on human S1P1 receptor, the activation at 5 µM stood at 79.4% and the EC50 turned out to be 317 nM.
For `CCCCCCc1ccc(-c2ccc(CNCCCP(=O)(O)O)nc2-c2cccs2)cc1` [Compound 2, (3-{[5-(4-Hexyl-phenyl)-6-thiophen-2-yl-pyridin-2-ylmethyl]-amino}-propyl)-phosphonic acid], at human S1P1 receptor, the activation at 5 µM is 68.1% and the EC50 came to 5.26 nM. In addition, the “number of lymphocytes found in the blood” value with lymphocytes in blood (after 24 h of drug application) is listed as “reduced”.
For `CCCCCCc1ccc(-c2ccc(CNCCCP(=O)(O)O)nc2-c2ccc(F)s2)cc1` [Compound 3, (3-{[6-(5-Fluoro-thiophen-2-yl)-5-(4-hexyl-phenyl)-pyridin-2-ylmethyl]-amino}-propyl)-phosphonic acid], at human S1P1 receptor, the activation at 5 µM is 111% and the EC50 was found to be 25.1 nM. Further, the “number of lymphocytes found in the blood” value in the test with lymphocytes in blood (after 72 h of drug application) is “reduced”.
Taken in the same sequence, the figures for `CCCCCCc1ccc(-c2ccc(CNCCCP(=O)(O)O)nc2-c2cccs2)cc1CCC` [Compound 4, (3-{[5-(4-Hexyl-3-propyl-phenyl)-6-thiophen-2-yl-pyridin-2-ylmethyl]-amino}-propyl)-phosphonic acid] were 79.1%, 7.72 nM and “reduced”.
For `O=P(O)(O)CCCNCc1ccc(-c2ccc(CCCc3ccccc3)cc2)c(-c2cccs2)n1` [Compound 5, [3-({5-[4-(3-Phenyl-propyl)-phenyl]-6-thiophen-2-yl-pyridin-2-ylmethyl}-amino)-propyl]-phosphonic acid], on human S1P1 receptor, the activation at 5 µM is 91.1% and the EC50 was determined as 2.36 nM. For the same compound, the “number of lymphocytes found in the blood” value in the test on lymphocytes in blood (after 48 h of drug application) is recorded as “reduced”.
`CCCCCCc1ccc(-c2ccc(CNCCCP(=O)(O)O)nc2-c2ccsc2)cc1` [Compound 6, (3-{[5-(4-Hexyl-phenyl)-6-thiophen-3-yl-pyridin-2-ylmethyl]-amino}-propyl)-phosphonic acid]: on human S1P1 receptor, the activation at 5 µM was 76.9% and the EC50 came out at 9.19 nM. Also, in the test on lymphocytes in blood (after 48 h of drug application), the “number of lymphocytes found in the blood” value was “reduced”.
Take `CCCCCCc1ccc(-c2ccc(CNCCCP(=O)(O)O)nc2-c2cocn2)cc1` [Compound 7, (3-{[5-(4-Hexyl-phenyl)-6-oxazol-4-yl-pyridin-2-ylmethyl]-amino}-propyl)-phosphonic acid]: on human S1P1 receptor, the activation at 5 µM was found to be 86.1% and the EC50 came out at 0.87 nM. Also, the “number of lymphocytes found in the blood” value in the test with lymphocytes in blood (after 24 h of drug application) is listed as “reduced”.
For `CCCCCCc1ccc(-c2ccc(CNCCCP(=O)(O)O)nc2-c2nccs2)cc1` [Compound 8, (3-{[5-(4-Hexyl-phenyl)-6-thiazol-2-yl-pyridin-2-ylmethyl]-amino}-propyl)-phosphonic acid], on human S1P1 receptor, the activation at 5 µM was found to be 89.3% and the EC50 is 6.52 nM.
On to `CCCCCCc1ccc(-c2ccc(CNCCCP(=O)(O)O)nc2-c2ccco2)cc1` [Compound 9, (3-{[6-Furan-2-yl-5-(4-hexyl-phenyl)-pyridin-2-ylmethyl]-amino}-propyl)-phosphonic acid], for which, at human S1P1 receptor, the activation at 5 µM is 88.6% and the EC50 is 0.44 nM. Further, in the test on lymphocytes in blood (after 48 h of drug application), the “number of lymphocytes found in the blood” value is “reduced”.
As for `O=P(O)(O)CCCNCc1ccc(-c2ccc(CCC(F)(F)C(F)(F)C(F)(F)C(F)(F)F)cc2)c(-c2ccccc2)c1` [Compound 11, (3-{[4-(3,3,4,4,5,5,6,6,6-Nonafluoro-hexyl)-[1,1′;2′,1″]terphenyl-4′-ylmethyl]-amino}-propyl)-phosphonic acid], at human S1P1 receptor, the activation at 5 µM was determined as 71.8% and the EC50 was determined as 416 nM.
Taken in the same sequence, the figures for `O=P(O)(O)CCCNCc1ccc(-c2ccc(CCCc3ccccc3)cc2)c(-c2ccccc2)c1` [Compound 12, (3-{[4-(3-Phenyl-propyl)-[1,1′;2′,1″]terphenyl-4′-ylmethyl]-amino}-propyl)-phosphonic acid] were 64% and 625 nM.
Taken in the same sequence, the figures for `O=P(O)(O)CCCNCc1ccc(-c2ccc(CCCc3ccccc3)cc2)c(-c2cccc(Cl)c2)n1` [Compound 13, [3-({6-(3-Chloro-phenyl)-5-[4-(3-phenyl-propyl)-phenyl]-pyridin-2-ylmethyl}-amino)-propyl]-phosphonic acid] were 64% and 2430 nM.
Consider `O=P(O)(O)CCCNCc1ccc(-c2ccc(CCCc3ccccc3)cc2)c(-c2ccccc2)n1` [Compound 14, [3-({6-Phenyl-5-[4-(3-phenyl-propyl)-phenyl]-pyridin-2-ylmethyl}-amino)-propyl]-phosphonic acid], for which, at human S1P1 receptor, the activation at 5 µM was 86.6% and the half-maximal effective concentration (EC50) came to 93.8 nM. Further, the “number of lymphocytes found in the blood” value in the test on lymphocytes in blood (after 5 h of drug application) is “reduced”.
Turning to `CCCCCOc1ccc(-c2ccc(CNCCCP(=O)(O)O)nc2-c2cccc(F)c2)cc1` [Compound 17, (3-{[6-(3-Fluoro-phenyl)-5-(4-pentyloxy-phenyl)-pyridin-2-ylmethyl]-amino}-propyl)-phosphonic acid], on human S1P1 receptor, the activation at 5 µM came out at 83.9% and the EC50 turned out to be 2200 nM.
In the same order, the values of `CCCCCOc1ccc(-c2ccc(CNCCCP(=O)(O)O)nc2-c2ccc(F)cc2)cc1` [Compound 18, (3-{[6-(4-Fluoro-phenyl)-5-(4-pentyloxy-phenyl)-pyridin-2-ylmethyl]-amino}-propyl)-phosphonic acid] are 104% and 472 nM.
Consider `CCCCCOc1ccc(-c2ccc(CNCCCP(=O)(O)O)nc2-c2ccccc2)cc1` [Compound 19, (3-{[5-(4-Pentyloxy-phenyl)-6-phenyl-pyridin-2-ylmethyl]-amino}-propyl)-phosphonic acid], for which, at human S1P1 receptor, the activation at 5 µM was found to be 95.5% and the EC50 was 358 nM.
Taken in the same sequence, the figures for `CCCCCCc1ccc(-c2ccc(CNCCCP(=O)(O)O)cc2-c2ccccc2)cn1` [Compound 20, (3-{[6-(6-Hexyl-pyridin-3-yl)-biphenyl-3-ylmethyl]-amino}-propyl)-phosphonic acid] were 94.7% and 833 nM.
`CCCCCCCCc1ccc(-c2ccc(CNCCCP(=O)(O)O)cc2-c2ccccc2)cn1` [Compound 22, (3-{[6-(6-Octyl-pyridin-3-yl)-biphenyl-3-ylmethyl]-amino}-propyl)-phosphonic acid]: at human S1P1 receptor, the activation at 5 µM is 89.7% and the EC50 turned out to be 771 nM.
Taken in the same sequence, the figures for `CCCCCCc1ccc(-c2ccc(CNCCCP(=O)(O)O)nc2-c2ccccc2)cc1` [Compound 27, (3-{[5-(4-Hexyl-phenyl)-6-phenyl-pyridin-2-ylmethyl]-amino}-propyl)-phosphonic acid] were 112% and 252 nM.

As a reminder, the EC50 is the concentration giving half of the maximal effect.
